Experimental data from patent US20160102058A1, “FLUORO-PERHEXILINE COMPOUNDS AND THEIR THERAPEUTIC USE” (THE UNIVERSITY COURT OF THE UNIVERSITY OF ABERDEEN, priority 2013, published 2016).

Key:
[1] = Human liver microsomal (HLM) stability assay; type: in vitro ADME; conditions: for microsomal CLint at 3 μM / half-life at 3 μM: both sexes, pH 7.4, human liver microsomes, 3 μM test compound; for microsomal CLint at 3 μM: read-out: CLint (μL/min/mg protein) HLM; for half-life at 3 μM: read-out: T½ (min) HLM; for metabolic stability compared with perhexiline (in words): human and rat liver microsomes, versus perhexiline
Protocol: The metabolic stability of fluoroperhexiline derivatives was measured by determination of the rate of compound disappearance when incubated in the presence of both human and rat liver microsomes. Liver microsomes are prepared from the endoplasmic reticulum of hepatocytes and are the primary source of the most important enzymes (cytochrome P450) involved in drug metabolism. Study of drug stability in the presence of liver microsomes is accepted as a valuable model permitting rapid prediction of in vivo drug stability.
Human and rat liver microsomes were obtained from a commercial source. Test compounds (3 μM) were incubated with pooled liver microsomes (male and female). Samples were incubated for a 45 minute period and removed at 5 time points and test compounds were analysed by LC-MS/MS.
Microsomes (final protein concentration 0.5 mg/mL), 0.1 M phosphate buffer pH 7.4, and test compound (final concentration 3 μM; diluted from 10 mM stock solution to give a final DMSO concentration of 0.25%) were incubated at 37° C. prior to the addition of NADPH (final concentration 1 mM) to initiate the reaction. The final incubation volume was 25 μL. A control incubation was included for each compound tested, where 0.1 M phosphate buffer pH 7.4 was added instead of NADPH. The control compounds testosterone and 7-hydroxycoumarin were included in each experiment and all incubations were performed singularly for each compound.
Each compound was incubated for 0, 5, 15, 30, and 45 minutes. The control (minus NADPH) was incubated for 45 minutes only. The reactions were stopped by the addition of 50 μL methanol containing internal standard at the appropriate time points. The incubation plates were centrifuged at 2500 rpm for 20 minutes at 4° C. to precipitate the protein.
Following protein precipitation, the sample supernatants were combined in cassettes of up to 4 compounds and analysed using standard LC-MS/MS conditions.
From a plot of the natural logarithm of the peak area ratio (i.e., the ratio of compound peak area:internal standard peak area) against time, the gradient of the line was determined. Subsequently, half-life and intrinsic clearance were calculated using the equations below:
Eliminated Rate Constant (k)=(−Gradient).
Half-Life (t1/2) (min)=0.063/k.
Intrinsic Clearance (CLint) […]=(V×0.693)/t1/2. • wherein V=Incubation Volume (μL/mg microsomal protein).

[2] = target: T1, CYP2D6 (Homo sapiens, UniProt P10635); test: Cytochrome P450 2D6 reaction phenotyping (Bactosomes); type: in vitro ADME; conditions: for stability towards CYP2D6 compared with perhexiline (in words): versus perhexiline; for half-life at 5 μM: human, pH 7.4, read-out: T½
T1 construct: purchased Cypex Ltd; host or cells: bacterial membranes (Bactosomes)
Protocol: The stability of fluoroperhexiline derivatives towards CYP2D6-mediated metabolism was measured by determination of the rate of compound disappearance when incubated in the presence CYP2D6 recombinant isoform expression systems (Bactosomes™). The percentage of parent compound remaining at each time point (following correction for any loss in the incubations with the control bactosomes) is calculated. cDNA expressed human CYP450 enzyme preparations co-expressed with human NADPH cytochrome P450 reductase (Bactosomes™) are supplied by Cypex Ltd. Bactosomes™ are stored at −80° C. prior to use. […] Incubations are also performed using control bactosomes (no P450 enzymes present) to reveal any non-enzymatic degradation. The final incubation volume is 25 μL. A compound known to be metabolised specifically by CYP2D6 isoform is used as a control compound. Each compound is incubated singly for 0, 5, 15, 30 and 45 min with each isoform. The reactions are stopped by the addition of 50 μL methanol containing internal standard at the appropriate time points. The incubation plates are centrifuged at 2500 rpm for 20 min at 4° C. to precipitate the protein. Following protein precipitation, the sample supernatants are combined in cassettes of up to four compounds and analysed using Cyprotex generic LC-MS/MS conditions. The natural logarithm of the peak area ratio (which has been corrected for any loss in the incubations with the control bactosomes) is plotted against time and the gradient of the line determined. Elimination Rate Constant (k)=(−Gradient).

[3] = recombinant CYP2D6 Bactosomes, 5 μM test compound

T1 sequence (P10635 whole entry): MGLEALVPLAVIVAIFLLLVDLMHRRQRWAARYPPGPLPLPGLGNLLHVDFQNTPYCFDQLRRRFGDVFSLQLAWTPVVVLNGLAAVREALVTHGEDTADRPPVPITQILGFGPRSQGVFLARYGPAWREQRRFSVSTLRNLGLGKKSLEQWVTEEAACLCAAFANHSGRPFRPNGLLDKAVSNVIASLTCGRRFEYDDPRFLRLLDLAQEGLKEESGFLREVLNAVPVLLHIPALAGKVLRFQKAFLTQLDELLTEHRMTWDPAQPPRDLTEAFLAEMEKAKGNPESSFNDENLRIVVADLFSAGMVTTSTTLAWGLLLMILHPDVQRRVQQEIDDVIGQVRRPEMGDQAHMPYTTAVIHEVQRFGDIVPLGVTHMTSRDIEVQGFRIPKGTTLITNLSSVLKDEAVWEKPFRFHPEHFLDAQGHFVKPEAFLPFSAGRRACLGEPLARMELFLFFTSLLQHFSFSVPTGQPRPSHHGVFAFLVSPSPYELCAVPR

Compound	microsomal CLint at 3 μM [1] [µL/min/mg]	half-life at 3 μM [1] [min]	metabolic stability compared with perhexiline (in words) [1]	T½ [2, 3] [h]	stability towards CYP2D6 compared with perhexiline (in words) [2]	half-life at 5 μM [2, 3] [h]
FC1(F)CCC(C(CC2CCCCN2)C2CCCCC2)CC1 (mixture of isomers) [FPER-001, 2-(2-Cyclohexyl-2-(4,4-difluorocyclohexyl)ethyl)piperidine]	2.6	525	substantial increase in metabolic stability	1.73	substantial increase in stability towards CYP2D6	–
FC1CCC(C(CC2CCCCN2)C2CCCCC2)CC1 (mixture of isomers) [FPER-003, 2-(2-Cyclohexyl-2-(4-fluorocyclohexyl)ethyl)piperidine]	21.3	65	substantial decrease in stability	–	no increase in stability	0.267
C1CCC(C(CC2CCCCN2)C2CCCCC2)CC1 (stereo not shown) [Perhexiline, 2-(2,2-dicyclohexylethyl)piperidine]	13.8	100	–	–	–	0.233
